Reference: publication PMC5667507, “A novel ^18F-labelled high affinity agent for PET imaging of the translocator protein” (Chemical Science, 2015)

Key:
[1] = tested on: TSPO; assay: Dynamic PET scan of a mouse bearing an intracranial U87MG-Luc2 tumour; assay type: in vivo; settings: single mouse, 120 min dynamic PET, early portion of the scan
Description: In order to investigate the potential of [^18F]-AB5186 6 as a PET tracer for TSPO a dynamic PET scan was performed using the Albira imaging system (Carestream Molecular Imaging, USA) in a single mouse bearing an intracranial U87MG-Luc2 tumour for 120 min after intravenous administration of the tracer. Postmortem histological examination of the brain collected at the end of the scan was conducted to visualise the anatomical location of the tumour. Following reconstruction, the entire dynamic PET image was manually co-registered to key anatomical structures of the CT (i.e. the spine, the front limbs and the eye sockets). […]
Fig. 6 Averaged PET images of a U87MG-Luc2 glioma bearing mouse brain following [^18F]-AB5186 injection: (a) 0–40 min averaged, (b) 41–80 min averaged, and (c) 81–120 min averaged; 120 min dynamic scan. […] (f) Tracer kinetics expressed as a ratio of the tumour to contralateral SUVs.
20 min the mice were sacrificed by CO2 asphyxiation, the brains were removed and frozen using a Cryospray (Cellpath). […] The film was developed following an overnight incubation at −20 ° C and scanned using a Bio-Rad GS-800 Calibrated Densitometer with the aid the Quantity One Basic (version 4.6.3) software. Quantification was performed using the ImageJ 1.47v software. […]

[2] = Baseline dynamic PET scan of healthy baboon brain; assay type: in vivo; settings: whole brain, 240 min dynamic PET, i.v. bolus
Description: Following PET reconstruction and co-registration to an MRI (Fig. 7a), a time–activity curve for the tracer in the whole brain was established (Fig. 7b). […]
divided by the animal weight. A secondary spherical VOI was used to define the contralateral kinetics and the tumour to contralateral SUV ratio was calculated as a function of time. […]
were represented graphically using the GraphPad Prism 6 software (GraphPad Softare Inc).
14. Primate PET Methodology
A baboon (Papio anubis, 21.3 kg) was fasted for up to 12 h prior to imaging. […] Body temperature was maintained using a heated water blanket and monitored by rectal thermometer. Vital signs, including end tidal CO2, SpO2, heart rate, respiration rate and blood pressure, were monitored continuously and recorded at least every 15 min during the study. […]
generated and SUV determined as the concentration in the VOI divided by the injected dose divided […]
exception of the samples collected for metabolite analysis (3.5 mL each), all blood samples were 1 mL each. […] After blood collection, all samples were kept on ice until analysed.
Radioactivity in whole blood and plasma was assessed with a well-type γ-counter using a 400–1400 keV window (Perkin Elmer Wallac 2480, USA). […]

## CCN(CC)C(=O)c1nc2ccccc2c(-c2ccccc2)c1C[18F] [[^18F]-AB5186 6]
[1]
  amount of tracer in tumour versus contralateral region (time-activity curve): greater amounts
[2]
  peak standardised uptake value (SUV) in brain: 1.67
